Positions of bridges follow the written chain, without caps; N, C: chain ends. Non-standard residues stand in square brackets, D forms with d. Residues, ends and D or L forms follow the SMILES beside them. NMeR = CN[C@@H](CCCNC(=N)N)C(=O)O; hArg = N=C(N)NCCCC[C@H](N)C(=O)O; 3Amb = NCc1cccc(C(=O)O)c1; dAbu = CC[C@@H](N)C(=O)O; Mpa = O=C(O)CCS
Key:
[1] = oral bioavailability was measured in dogs; format: ADME, organism-based, Canis lupus familiaris; conditions: dog, in vivo
[2] = half-life of compound in human; conditions: in vivo
[3] = In vitro inhibition of gel filtered platelet aggregation induced by ADP.
[4] = target: T1, Integrin alpha-IIb/beta-3 (Homo sapiens, UniProt P05106+P08514); test: Dissociation constant for alpha IIb beta-3 integrin rested platelets; format: functional
Target sequence in this assay (P05106 27-788 limits assumed): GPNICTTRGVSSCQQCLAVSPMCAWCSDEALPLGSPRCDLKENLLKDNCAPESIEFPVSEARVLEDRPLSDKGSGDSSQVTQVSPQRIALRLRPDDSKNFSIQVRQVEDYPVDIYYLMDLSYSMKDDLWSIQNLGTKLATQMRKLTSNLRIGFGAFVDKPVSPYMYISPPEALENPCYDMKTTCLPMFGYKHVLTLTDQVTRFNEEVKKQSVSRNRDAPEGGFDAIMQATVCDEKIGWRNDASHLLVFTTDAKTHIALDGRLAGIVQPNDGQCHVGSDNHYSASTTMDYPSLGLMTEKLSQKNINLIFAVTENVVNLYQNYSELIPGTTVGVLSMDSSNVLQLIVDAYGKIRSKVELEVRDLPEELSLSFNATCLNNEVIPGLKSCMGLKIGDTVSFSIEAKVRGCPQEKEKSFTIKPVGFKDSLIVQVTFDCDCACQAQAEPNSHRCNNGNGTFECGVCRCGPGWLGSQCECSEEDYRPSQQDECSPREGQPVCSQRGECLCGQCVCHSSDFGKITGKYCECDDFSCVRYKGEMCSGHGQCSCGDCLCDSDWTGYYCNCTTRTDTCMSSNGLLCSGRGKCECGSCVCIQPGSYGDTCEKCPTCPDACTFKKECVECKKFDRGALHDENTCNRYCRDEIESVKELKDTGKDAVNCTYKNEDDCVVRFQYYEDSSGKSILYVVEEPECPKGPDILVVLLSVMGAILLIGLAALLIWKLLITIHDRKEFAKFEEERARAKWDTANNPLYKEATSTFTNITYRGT
Target sequence in this assay (P08514 32-887 limits assumed): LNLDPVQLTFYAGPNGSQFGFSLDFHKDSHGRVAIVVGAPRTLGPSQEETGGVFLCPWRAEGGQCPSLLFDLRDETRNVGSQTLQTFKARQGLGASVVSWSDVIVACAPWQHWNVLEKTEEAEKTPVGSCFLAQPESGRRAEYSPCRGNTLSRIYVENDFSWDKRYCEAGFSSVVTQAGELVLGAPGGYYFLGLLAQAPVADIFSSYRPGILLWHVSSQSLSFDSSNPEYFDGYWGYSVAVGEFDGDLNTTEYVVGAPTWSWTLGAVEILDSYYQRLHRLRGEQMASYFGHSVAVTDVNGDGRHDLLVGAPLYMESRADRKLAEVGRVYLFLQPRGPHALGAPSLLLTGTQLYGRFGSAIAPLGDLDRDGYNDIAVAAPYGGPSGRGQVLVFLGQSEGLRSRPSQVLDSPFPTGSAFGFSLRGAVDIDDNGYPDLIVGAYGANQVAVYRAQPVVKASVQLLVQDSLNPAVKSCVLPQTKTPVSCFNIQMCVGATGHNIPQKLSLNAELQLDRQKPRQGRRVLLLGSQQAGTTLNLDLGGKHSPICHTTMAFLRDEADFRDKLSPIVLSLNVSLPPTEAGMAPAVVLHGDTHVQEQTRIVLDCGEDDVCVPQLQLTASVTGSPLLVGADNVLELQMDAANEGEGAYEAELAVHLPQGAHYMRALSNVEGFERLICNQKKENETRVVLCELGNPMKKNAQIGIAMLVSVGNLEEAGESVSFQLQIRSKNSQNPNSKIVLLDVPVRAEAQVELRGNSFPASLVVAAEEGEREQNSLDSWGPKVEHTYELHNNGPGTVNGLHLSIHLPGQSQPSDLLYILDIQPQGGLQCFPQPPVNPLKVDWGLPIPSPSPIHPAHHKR
Target sequence in this assay (P08514 891-1039 limits assumed): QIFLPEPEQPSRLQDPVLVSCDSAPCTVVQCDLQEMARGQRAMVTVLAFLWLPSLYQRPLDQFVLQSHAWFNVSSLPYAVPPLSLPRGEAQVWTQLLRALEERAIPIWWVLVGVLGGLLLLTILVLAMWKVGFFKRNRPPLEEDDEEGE

Homo sapiens [5] = organism: Homo sapiens; test: biological half-life was measured on unactivated human platelets
[6] = oral bioavailability was measured on rats; format: ADME, organism-based; conditions: rat, in vivo
[7] = oral bioavailability was measured on rhesus monkey; format: ADME, organism-based, Macaca mulatta; conditions: in vivo
[8] = target: T1, Integrin alpha-IIb/beta-3; test: Inhibition of fibrinogen binding to alpha IIb beta-3 integrin; format: protein-complex assay
Target sequence in this assay (P05106 27-788 limits assumed): as the sequence (P05106 27-788 limits assumed) above
Target sequence in this assay (P08514 32-887 limits assumed): as the sequence (P08514 32-887 limits assumed) above
Target sequence in this assay (P08514 891-1039 limits assumed): as the sequence (P08514 891-1039 limits assumed) above

[9] = target: T1, Integrin alpha-IIb/beta-3; test: Inhibition of fixed platelet aggregation; format: functional
Target sequence in this assay (P05106 27-788 limits assumed): as the sequence (P05106 27-788 limits assumed) above
Target sequence in this assay (P08514 32-887 limits assumed): as the sequence (P08514 32-887 limits assumed) above
Target sequence in this assay (P08514 891-1039 limits assumed): as the sequence (P08514 891-1039 limits assumed) above

[10] = target: T1, Integrin alpha-IIb/beta-3; test: Inhibition of fibrinogen binding to activated platelets
Target sequence in this assay (P05106 27-788 limits assumed): as the sequence (P05106 27-788 limits assumed) above
Target sequence in this assay (P08514 32-887 limits assumed): as the sequence (P08514 32-887 limits assumed) above
Target sequence in this assay (P08514 891-1039 limits assumed): as the sequence (P08514 891-1039 limits assumed) above

[11] = Oral bioavailability in dog; format: ADME, organism-based, Canis lupus familiaris; conditions: in vivo
[12] = target: T1, Integrin alpha-IIb/beta-3; test: Inhibition of platelet aggregation after administration of 30 ug/kg iv bolus to dogs within first 1-15 min; format: functional, organism-based; conditions: Canis lupus familiaris; target entry is the homologue from another species
[13] = target: T1, Integrin alpha-IIb/beta-3; test: Percent inhibition of gel filtered platelet aggregation induced by ADP; format: functional; conditions: concentration not given here
[14] = target: T1, Integrin alpha-IIb/beta-3; test: Inhibition of platelet aggregation after administration of 10 ug/kg iv to dogs within 1 min; format: functional, organism-based; conditions: Canis lupus familiaris; target entry is the homologue from another species
[15] = target: T1, Integrin alpha-IIb/beta-3; test: Inhibition of platelet aggregation after administration of 10 ug/kg iv to dogs at 8 hr; format: functional, organism-based; conditions: Canis lupus familiaris; target entry is the homologue from another species
[16] = target: T1, Integrin alpha-IIb/beta-3; test: Inhibition of platelet aggregation after administration of 0.1 mg/kg at 24 hr; conditions: Canis lupus familiaris
[17] = Half-life in humans; format: ADME, organism-based; conditions: human, in vivo
[18] = Bioavailability in humans; format: ADME, organism-based; conditions: human, in vivo
Homo sapiens [19] = organism: Homo sapiens; test: half-life was measured on unactivated human platelets
[20] = oral bioavailability was measured in rhesus monkeys; format: ADME, organism-based, Macaca mulatta; conditions: rhesus monkey, in vivo
[21] = biological half-life was measured on dog; format: ADME, organism-based, Canis lupus familiaris; conditions: in vivo
[22] = target: T1, Integrin alpha-IIb/beta-3; test: Inhibition of ex vivo maximal platelet aggregation in conscious dogs after oral administration of 4 mg/kg; conditions: Canis lupus familiaris; target entry is the homologue from another species; at 4 mg/kg
[23] = Inhibition of vitronectin receptor binding; set-up: species or system Homo sapiens
[24] = half life was measured on dogs; format: ADME, organism-based, Canis lupus familiaris; conditions: dog, in vivo
[25] = target: T1, Integrin alpha-IIb/beta-3; test: Inhibition of platelet aggregation after 0.25 mg/kg/day dose over 4 days at trough plasma concentrations in dogs; format: functional, organism-based; conditions: Canis lupus familiaris, target entry is the homologue from another species
[26] = Inhibition of platelet aggregation
[27] = target: T1, Integrin alpha-IIb/beta-3; test: Inhibition of [125]fibrinogen binding to alpha IIb beta-3 integrin; format: protein-complex assay
Target sequence in this assay (P05106 27-788 limits assumed): as the sequence (P05106 27-788 limits assumed) above
Target sequence in this assay (P08514 32-887 limits assumed): as the sequence (P08514 32-887 limits assumed) above
Target sequence in this assay (P08514 891-1039 limits assumed): as the sequence (P08514 891-1039 limits assumed) above

[28] = target: T1, Integrin alpha-IIb/beta-3; test: Inhibition of fibrinogen binding to alpha IIb beta-3 integrin using thrombin inhibitor PPACK as anticoagulant; format: functional
Target sequence in this assay (P05106 27-788 limits assumed): as the sequence (P05106 27-788 limits assumed) above
Target sequence in this assay (P08514 32-887 limits assumed): as the sequence (P08514 32-887 limits assumed) above
Target sequence in this assay (P08514 891-1039 limits assumed): as the sequence (P08514 891-1039 limits assumed) above

[29] = target: T1, Integrin alpha-IIb/beta-3; test: Dissociation constant for [3H]-DMP728 binding to alphaIIb beta III integrin; format: protein-complex assay
[30] = oral bio availability was measured on dogs; format: ADME, organism-based, Canis lupus familiaris; conditions: dog, in vivo
[31] = biological half-life was measured on dogs; format: ADME, organism-based, Canis lupus familiaris; conditions: dog, in vivo
[32] = biological half-life was measured on rhesus monkeys; format: ADME, organism-based, Macaca mulatta; conditions: rhesus monkey, in vivo
[33] = target: T1, Integrin alpha-IIb/beta-3; test: Inhibition of alpha IIb beta III mediated platelet aggregation
[34] = Duration of action in dog at a dose of 1 mg/kg i.d.; format: ADME, organism-based, Canis lupus familiaris; set-up: dose 1 mg/kg, route intraduodenal; conditions: in vivo, other
[35] = oral bioavailability was measured on dogs and rats; format: ADME, organism-based; conditions: eutheria, in vivo
[36] = target: T1, Integrin alpha-IIb/beta-3; test: Inhibition of ex vivo platelet aggregation after oral administration of 0.5 mg/kg to cynomolgus monkeys at 2-8h; format: functional, organism-based; set-up: dose 0.5 mg/kg; conditions: at 0.5 mg/kg
[37] = The biological half life was measured on dog; format: ADME, organism-based, Canis lupus familiaris; conditions: in vivo
[38] = target: T1, Integrin alpha-IIb/beta-3; test: Inhibition of platelet aggregation after 10 ug/kg/day dose over 6 days in dogs; format: functional; conditions: Canis lupus familiaris; target entry is the homologue from another species
[39] = target: T1, Integrin alpha-IIb/beta-3; test: Inhibition of platelet aggregation after oral administration of 3 mg/kg to guinea pigs within 1 hr; format: functional, organism-based; set-up: dose 3 mg/kg; conditions: Cavia porcellus; target entry is the homologue from another species; at 3 mg/kg
[40] = target: T1, Integrin alpha-IIb/beta-3; test: Inhibition of platelet aggregation after oral administration of 3 mg/kg to guinea pigs at 8 hr; format: functional, organism-based; set-up: dose 3 mg/kg; conditions: Cavia porcellus; target entry is the homologue from another species; at 3 mg/kg

`O=C(CCCC1CCNCC1)NCC(=O)N[C@H](CCc1c[nH]c2ccccc12)C(=O)O` showed a bioavailability [1] of 4.9%.

`CCCCS(=O)(=O)N[C@@H](Cc1ccc(OCCCCC2CCNCC2)cc1)C(=O)O` [TIROFIBAN] showed a half-life [2] of 0.5 h.

`N=C(N)c1ccc(C(=O)Nc2ccc3c(c2)CCN(CC(=O)O)C3=O)cc1` gave an IC50 [3] of 0.09 µM.

`CCCCS(=O)(=O)N[C@@H](CNC(=O)c1cc2n(n1)CCN(CCC1CCNCC1)C2=O)C(=O)O` gave a Kd [4] of 0.0014 µM.

Work on `CCCCOC(=O)N[C@@H](CNC(=O)C[C@H]1CC(c2ccc(C(=N)N)cc2)=NO1)C(=O)O` yielded a T1/2 (Homo sapiens [5]) of 7 min.

With `CCOC(=O)CCN1CC(=O)N(C)c2ccc(C#Cc3ccc(C(=N)NC(=O)OCC)cc3)cc2C1=O` the bioavailability [6] was 6% and the bioavailability [7] was 21%.

For `CC(=O)N[C@@H](CCCN=C(N)N)C(=O)NCC(=O)N[C@@H](CC(=O)O)C(=O)N[C@H](C(N)=O)C(C)C` (Ac-RGDV-NH2), the IC50 [8] was 27 µM.

Work on `CCN(CC(=O)N[C@@H](CC(=O)O)C(=O)N[C@@H](Cc1ccccc1)C(N)=O)C(=O)CCCC1CCNCC1` yielded an IC50 [9] of 0.097 µM and an IC50 [10] of 0.028 µM.

`N=C(N)c1ccc2oc(C(=O)NCCC(=O)NC[C@H](NS(=O)(=O)c3ccccc3)C(=O)O)cc2c1` showed an IC50 [3] of 0.035 µM.

For `C[C@H](CC(=O)O)NC(=O)CN1CCC[C@@H](CCC2CCNCC2)C1=O`, the Kd [4] was 0.65 µM, the bioavailability [11] was 16% and the inhibition [12] was > 90%.

For `Cc1ccc(S(=O)(=O)N[C@@H](CNC(=O)c2cc3n(n2)CCCN(CCC2CCNCC2)C3=O)C(=O)O)cc1`, the inhibition [13] was 66%, the inhibition [14] was 79% and the inhibition [15] was > 90%. It also gave an inhibition [16] of 87%.

Work on `CCOC(=O)CN1CCN(C[C@@H]2CN(c3ccc(C(N)=NC(=O)OC)cc3)C(=O)O2)CC1` [GANTOFIBAN] yielded a half-life [17] of 6 h and a bioavailability [18] of 40%.

For `Cc1noc(C)c1S(=O)(=O)N[C@@H](CNC(=O)C[C@H]1CC(c2ccc(C(=N)N)cc2)=NO1)C(=O)O`, the T1/2 (Homo sapiens [19]) was 0.533 h.

In the case of `C#C[C@H](CC(=O)OCC)NC(=O)CN1CCc2ccc(N3CCNCC3)cc2C1=O`, the bioavailability [1] is reported as > 17% and the bioavailability [20] is reported as 32%.

For `CN1C(=O)CN(CCC(=O)O)C(=O)c2cc(C#Cc3ccc(C(=N)N)cc3)ccc21`, the IC50 [3] was 0.12 µM.

`CCOC(=O)CCNC(=O)N[C@H]1CCN(c2ccc(C(=N)N)cc2)C1=O` [ORBOFIBAN] showed a half-life [21] of 18 h and a bioavailability [11] of 28%.

`O=C(O)CCNC(=O)c1ccc2c(c1)C(=O)N(CCC1CCNCC1)C2` gave an IC50 [3] of 0.025 µM and an inhibition [22] of 90%.

In the case of `CN1C(=O)c2ccccc2SSc2ccccc2NC(=O)[C@H](CC(=O)O)NC(=O)CNC(=O)[C@@H]1CCCN=C(N)N` [SKF-107260], the Ki [23] is reported as 0.0035 µM.

With `O=C(O)C[C@H](NC(=O)[C@@H]1CCCN(C(=O)CCC2CCNCC2)C1)c1cccnc1` [ELAROFIBAN] the half-life [24] was 1.42 h.

With `COc1ccc(C[C@H](NC(=O)[C@H](CC(=O)O)NC(=O)CNC(=O)[C@@H](N)CCCNC(=N)N)C(N)=O)cc1` (H-RGDY(Me)-NH2) the IC50 [8] was 27 µM.

In the case of `O=C(NC[C@H](NS(=O)(=O)c1ccccc1)C(=O)O)c1cc2cc(OCC3CCNCC3)ccc2[nH]1`, the inhibition [25] is reported as 95%.

For `O=C(NC[C@H](NS(=O)(=O)c1ccccc1)C(=O)O)c1ccc(N2CCNCC2)cc1`, the IC50 [26] was 0.017 µM.

`CC(=O)N[C@H]1CSSC[C@@H](C(N)=O)NC(=O)[C@H](CC(=O)O)NC(=O)CNC(=O)[C@H](CCCN=C(N)N)N(C)C1=O` (Ac-C[NMeR]GDC-NH2; disulfide 1-5) showed an IC50 [27] of 0.0028 µM, an IC50 [8] of 0.48 µM and a half-life [21] of 1.1 h.

Compound `N=C(N)NCCCC[C@@H]1NC(=O)CCSSC[C@@H](C(N)=O)NC(=O)[C@@H]2CCCN2C(=O)[C@H](Cc2c[nH]c3ccccc23)NC(=O)[C@H](CC(=O)O)NC(=O)CNC1=O` [EPTIFIBATIDE] ([Mpa][hArg]GDWPC-NH2; disulfide 1-7) has an IC50 [28] of 0.57 µM.

Work on `CC[C@H]1NC(=O)c2cccc(c2)CNC(=O)[C@H](CC(=O)O)NC(=O)CNC(=O)[C@H](CCCN=C(N)N)N(C)C1=O` (cyclo([NMeR]GD[3Amb][dAbu])) yielded an IC50 [8] of 0.0023 µM, a Kd [29] of 0.0001 µM and a bioavailability [30] of 12%.

With `O=C(NC[C@H](NS(=O)(=O)c1cccnc1)C(=O)O)c1ccc2c(c1)C(=O)N(CCC1CCNCC1)C2` the IC50 [3] was 0.015 µM.

In the case of `C[C@@]1(c2ccc(C(=N)N)cc2)NC(=O)N(CC(=O)NC(CC(=O)O)c2ccccc2)C1=O` (some centres not stated), the half-life [31] is reported as 9.9 h and the bioavailability [11] is reported as 42%.

Compound `O=C(NC[C@H](NS(=O)(=O)c1ccccc1)C(=O)O)c1cc2sc(CCC3CCNCC3)cc2s1` has an IC50 [3] of 0.007 µM.

In the case of `C[C@H](NC(=O)c1ccc(C(=N)N)cc1)C(=O)N1CCC(OCC(=O)O)CC1` [RO-44-3888], the half-life [31] is reported as 11.4 h and the half-life [32] is reported as 5.1 h.

For `CN1Cc2cc(C(=O)N3CCC(C4CCNCC4)CC3)ccc2N[C@@H](CC(=O)O)C1=O` [LOTRAFIBAN], the Kd [33] was 0.00185 µM and the duration of action [34] was > 8 h.

For `C[C@@H](COc1ccc(N2CCN(c3ccncc3)CC2)cc1)CC(=O)O`, the bioavailability [35] was > 50%.

For `Cc1c(C(=O)NCCC(=O)O)s/c(=N\C(=O)c2ccc(C(=N)N3CCC4(CC3)OCCO4)cc2)n1C`, the inhibition [36] was > 80%.

Compound `C#C[C@H](CC(=O)O)NC(=O)CCC(=O)Nc1ccc(C(=N)N)cc1` has a half-life [37] of 6.5 h and a bioavailability [11] of 53%.

With `C#C[C@H](CC(=O)OCC)NC(=O)CCC(=O)Nc1ccc(C(=N)N)cc1` [XEMILOFIBAN] the F [11] was 53%.

For `O=C(NC[C@H](NS(=O)(=O)c1cccnc1)C(=O)O)c1cc2cc(CCC3CCNCC3)sc2s1`, the inhibition [38] was > 80% and the IC50 [3] was 0.008 µM.

With `COC(=O)C[C@H]1C(=O)N(CC(=O)O)CCN1C(=O)CNC(=O)c1ccc(C(=N)N)cc1` the inhibition [39] was > 90% and the inhibition [40] was 40%.

From ChEMBL document CHEMBL1133644, “Platelet glycoprotein IIb-IIIa antagonists as prototypical integrin blockers: novel parenteral and potential oral antithrombotic agents” (J Med Chem, 2000)
